Reference: patent publication US6027875A, “Receptor infection assay” (The Salk Institute for Biological Studies, priority 1991, dated 2000)
Read-outs that look alike come from different tables or passages of the source. Blank lines part the entries; values can stand above or below the compound they belong to.

Legend:
[1] = biological target: T1, human glucocorticoid receptor (GR) (Homo sapiens, UniProt P04150); assay: Luciferase-based coinfection assay with unpurified virus stocks in 293 or CV-1 cells; design: expressed in transfected cells; host or cells: 293 cells (human embryonic kidney) infected with recombinant adenovirus hGR4 and reporter virus MLUC3; A3: 293 or CV-1 cells; details: 293 or CV-1 cells infected with both stocks, ten PFU/cell; lysates at twenty-two hours after infection
T1 sequence (P04150 1-777): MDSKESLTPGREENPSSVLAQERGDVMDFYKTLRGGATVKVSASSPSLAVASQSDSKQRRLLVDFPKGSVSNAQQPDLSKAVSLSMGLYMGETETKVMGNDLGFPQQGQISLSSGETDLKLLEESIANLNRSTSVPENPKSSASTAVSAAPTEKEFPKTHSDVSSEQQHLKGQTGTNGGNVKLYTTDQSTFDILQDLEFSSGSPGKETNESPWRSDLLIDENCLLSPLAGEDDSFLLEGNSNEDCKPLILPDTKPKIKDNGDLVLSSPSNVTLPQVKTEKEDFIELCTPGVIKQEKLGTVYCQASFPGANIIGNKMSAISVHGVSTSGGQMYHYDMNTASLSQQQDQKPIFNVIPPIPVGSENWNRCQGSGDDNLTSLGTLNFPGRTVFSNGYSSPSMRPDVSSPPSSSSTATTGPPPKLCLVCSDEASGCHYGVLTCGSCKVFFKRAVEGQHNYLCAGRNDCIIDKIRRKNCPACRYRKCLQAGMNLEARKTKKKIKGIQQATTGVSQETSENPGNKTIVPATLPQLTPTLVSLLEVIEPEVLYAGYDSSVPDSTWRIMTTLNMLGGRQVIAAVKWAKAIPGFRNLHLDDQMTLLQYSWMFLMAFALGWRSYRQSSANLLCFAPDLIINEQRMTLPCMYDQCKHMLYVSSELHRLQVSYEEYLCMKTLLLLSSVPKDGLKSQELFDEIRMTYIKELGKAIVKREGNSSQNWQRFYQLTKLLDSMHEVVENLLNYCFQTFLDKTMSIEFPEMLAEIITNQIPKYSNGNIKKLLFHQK
Text: With the unpurified virus stocks, their ability to measure hormone-responsiveness was accomplished using various adrenocorticosteroid, in the luciferase based assay. Assuming that the titer of the viral stocks was approximately 10^8 PFU/ML, either 293 cells or CV-1 cells that have low endogenous GR levels were infected with both stocks at a multiplicity of infection equal to ten PFU/cell. At twenty-two hours after infection (empirically determined to be the time when maximal GR synthesis occurs by Western blot measurement of protein), cell lysates were prepared and tested for luciferase activity.
Within the concentration range of 10^-10 and 10^-5 M of corticosteroids, dose response curves were generated that appeared by all qualitative criteria to resemble the binding activities of those glucocorticoids for the receptor protein.

[2] = biological target: T1, human glucocorticoid receptor (GR); assay: Functional assay with recombinant receptor (hGR4) and reporter (MLUC3) viruses in 293 cells, luciferase activity; details: 22 hours after infection; for Luciferase response to dex mimicked by other adrenocorticosteroids: hGR4 + MLUC3 coinfected 293 cells
Text: A reporter virus (MLUC3; also variously referred to as Ad3MLUC, MpCV3MTV-LUC-Ad and ADMLUC) was constructed containing the mouse mammary tumor virus LTR linked to the firefly luciferase cDNA with an SV40 polyadenylation signal (Hollenberg, et al., Cell 55, 899 (1988)) similar to the receptor virus hGR4 above. The two viruses, hGR4 and MLUC3, were coinfected into 293 cells growing in DMEM suplemented with 10% charcoal adsorbed fetal calf serum ±10^-7 M dexamethasone (dex), and cellular extracts were prepared by Triton X-100™ brand non-ionic surfactant lysis at 22 hours after infection. (Williams, et al., Anal. Biochem 176, 28 (1989)) These were tested for luciferase activity by incubating with ATP and luciferin in a suitable buffer system. (de Wet, et al., Mol. Cell Biol. 7, 725 (1987)). Light liberated in this reaction was measured using a luminometer.

[3] = biological target: T1, human glucocorticoid receptor (GR); details: 293 cell lysate, 20 µL/200 µL assayed
Description: The coinfection assay was carried out in the following manner. Twelve well dishes were seeded with 293 cells at a density of 1.2×10^5 cells per well and grown in Dulbecco's modified Eagle's medium (DME) supplemented with 10% fetal calf serum. Assuming that the hGR4, MLUC3, and dl 309 virus stocks were 10^8 PFU/ml, the next day cells were infected with various combinations of these stocks in triplicate at a multiplicity of infection corresponding to 50. Dexamethasone dissolved in 50% ethanol or the control vehicle alone were each diluted into DME supplemented with 10% charcoal-adsorbed fetal calf serum at a final concentration of 0.1 μM. These mixtures were added to cells adsorbed with virus for thirty minutes. Cells were harvested at 18, 22 and 89 hours after infection by scraping them from the plate and washing the cell pellets in phosphate-buffered saline, and resuspending them in 100 microliters of 100 mM K2 HPO4 (pH 7.8), 1 mM dithiothreitol). Cell lysates were prepared by three cycles of sequential freezing and thawing in a dry ice/ethanol and 37° C. baths. Cell debris was pelleted by centrifugation in a microcentrifuge for 5 minutes at 4° C. […] Luciferase enzyme activity was assayed by automatic injection of 1 mM d-luciferin (Analytical Luminescence Laboratories) as described in de Wet et al. Mol. Cell. Biol. 7, 725 (1987) using a Berthold luminometer.
The orientation is reversed relative to the major late promoter with the RSV long term repeat promoter driving the expression of the human glucocorticoid receptor DNA terminating with SV40 polyadenylation sequence. This orientation removes the tripartite leader from functioning in its usual manner. A separate vector for the receptor DNA is constructed similarly. The two vectors are separately used to infect 293 cells. First, 293 cells are infected with the vector bearing the human glucocorticoid receptor DNA. Successful infection can be tested by picking plaques and doing a Western analysis with human glucocorticoid receptor antibodies or one can measure the ligand binding properties of the extracts or one can do a restriction map analysis to assure proper infection with the human glucocoid receptor adenovirus DNA. Successfully infected cells are then infected with the reporter virus vector. Alternatively, both vectors could be mixed on, for example, 293 cells. Where host cells not bearing a complement of the adenovirus genome are used, one may coinfect with wild-type virus in order to supply the missing complement. […] The material to be tested may either be added in at the beginning or at such twenty-two hour period. The cells are then tested for measurement of the reporter activity. In the case of the exemplified luciferase gene, that measurement takes the form of quantitating light emission from luciferin oxidized by any luciferase present.

[4] = biological target: T1, human glucocorticoid receptor (GR); assay: Detection of glucocorticoids: cells infected with hGR4 and MLUC3, luciferase activity; type: cell-based; design: expressed in transfected cells; host or cells: 293 cells (human embryonic kidney) infected with recombinant adenovirus hGR4 and reporter virus MLUC3; A3: 293 or CV-1 cells; details: 10^-8 M cortisol, 18 hours p.i., read-out: Share of the maximal transcriptional response
Description: Cells were infected with hGR4 and MLUC3 recombinant adenoviruses in the presence of varying concentrations of cortisol from 10^-11 M to 10^-5 M in 3-fold dilution steps. At 18 hours p.i., lysates were prepared and luciferase activity was measured. Approximately 10% of the maximal transcriptional response was detected at 10^-8 M cortisol. Since standard assay volumes are 200 μl per well in a 96 sample microliter dish, this represents about 2×10^-12 mole or about 0.6 ng of cortisol.

Compound: CC1=C(/C=C/C(C)=C/C=C/C(C)=C/C(=O)O)C(C)(C)CCC1 [retinoic acid]
Induction of luciferase activity (inducer in this system) [1]: ineffective inducers

Compound: estrogen
Induction of luciferase activity (inducer in this system) [1]: ineffective inducers
Luciferase response to dex mimicked by other adrenocorticosteroids [2]: mimicked

Response of cell lysate (luciferase activity), with CV ([3]; co-infection HGR + DL309, 18 HRS after co-infection, DEX 3 × 10^-9): 35 (28%)
Response of cell lysate (luciferase activity), with CV ([3]; co-infection HGR + DL309, 18 HRS after co-infection, DEX 10^-7 M): 33
Response of cell lysate (luciferase activity), with CV ([3]; co-infection HGR + DL309, 22 HRS after co-infection, DEX 3 × 10^-9): 40 (19%)
Response of cell lysate (luciferase activity), with CV ([3]; co-infection HGR + DL309, 22 HRS after co-infection, DEX 10^-7 M): 42 (38%)
Response of cell lysate (luciferase activity), with CV ([3]; co-infection HGR + DL309, 89 HR after co-infection, DEX 3 × 10^-9): 22 (14%)
Response of cell lysate (luciferase activity), with CV ([3]; co-infection HGR + DL309, 89 HR after co-infection, DEX 10^-7 M): 27 (4%)
Response of cell lysate (luciferase activity), with CV ([3]; co-infection HGR + MTV-LUC, 18 HRS after co-infection, DEX 3 × 10^-9): 30015
Response of cell lysate (luciferase activity), with CV ([3]; co-infection HGR + MTV-LUC, 18 HRS after co-infection, DEX 10^-7 M): 72864
Response of cell lysate (luciferase activity), with CV ([3]; co-infection HGR + MTV-LUC, 22 HRS after co-infection, DEX 3 × 10^-9): 48858 (14%)
Response of cell lysate (luciferase activity), with CV ([3]; co-infection HGR + MTV-LUC, 22 HRS after co-infection, DEX 10^-7 M): 90718 (18%)
Response of cell lysate (luciferase activity), with CV ([3]; co-infection HGR + MTV-LUC, 89 HR after co-infection, DEX 3 × 10^-9): 1246 (68%)
Response of cell lysate (luciferase activity), with CV ([3]; co-infection HGR + MTV-LUC, 89 HR after co-infection, DEX 10^-7 M): 1065 (7%)
Response of cell lysate (luciferase activity), with CV ([3]; co-infection MTV-LUC + DL309, 18 HRS after co-infection, DEX 3 × 10^-9): 3643 (20%)
Response of cell lysate (luciferase activity), with CV ([3]; co-infection MTV-LUC + DL309, 18 HRS after co-infection, DEX 10^-7 M): 19130
Response of cell lysate (luciferase activity), with CV ([3]; co-infection MTV-LUC + DL309, 22 HRS after co-infection, DEX 3 × 10^-9): 5095 (12%)
Response of cell lysate (luciferase activity), with CV ([3]; co-infection MTV-LUC + DL309, 22 HRS after co-infection, DEX 10^-7 M): 24215 (4%)
Response of cell lysate (luciferase activity), with CV ([3]; co-infection MTV-LUC + DL309, 89 HR after co-infection, DEX 3 × 10^-9): 53 (48%)
Response of cell lysate (luciferase activity), with CV ([3]; co-infection MTV-LUC + DL309, 89 HR after co-infection, DEX 10^-7 M): 151 (23%)
Response of cell lysate (luciferase activity), with CV ([3]; infection DL309 only, 18 HRS after co-infection, DEX 3 × 10^-9): 28 (5%)
Response of cell lysate (luciferase activity), with CV ([3]; infection DL309 only, 18 HRS after co-infection, DEX 10^-7 M): 32
Response of cell lysate (luciferase activity), with CV ([3]; infection DL309 only, 22 HRS after co-infection, DEX 3 × 10^-9): 42 (22%)
Response of cell lysate (luciferase activity), with CV ([3]; infection DL309 only, 22 HRS after co-infection, DEX 10^-7 M): 43 (11%)
Response of cell lysate (luciferase activity), with CV ([3]; infection DL309 only, 89 HR after co-infection, DEX 3 × 10^-9): 22 (24%)
Response of cell lysate (luciferase activity), with CV ([3]; infection DL309 only, 89 HR after co-infection, DEX 10^-7 M): 23 (7%)
Additional enhancement of the luciferase response by coinfection with hGR4 ([2]; MLUC3 + hGR4 (not with parental dl 309), 10^-7 M dex, 293 cells, 0.1 µM): 5 fold
Stimulation of luciferase activity ([2]; MLUC3 alone, 10^-7 M dex, 293 cells, 0.1 µM): 10 fold
Compound: C[C@@H]1C[C@H]2[C@@H]3CCC4=CC(=O)C=C[C@]4(C)[C@@]3(F)[C@@H](O)C[C@]2(C)[C@@]1(O)C(=O)CO [DEX, Dexamethasone]

activation at 0.01 µM [4]: ~10%
Luciferase response to dex mimicked by other adrenocorticosteroids [2]: mimicked
Compound: C[C@]12CCC(=O)C=C1CC[C@@H]1[C@@H]2[C@@H](O)C[C@@]2(C)[C@H]1CC[C@]2(O)C(=O)CO [cortisol]

Compound: C[C@]12C[C@H](O)[C@H]3[C@@H](CCC4=CC(=O)CC[C@@]43C)[C@@H]1CC[C@@H]2C(=O)CO [corticosterone]
Luciferase response to dex mimicked by other adrenocorticosteroids [2]: mimicked

Compound: C[C@]12CCC(=O)C=C1CC[C@@H]1[C@@H]2[C@@H](O)C[C@]2(C=O)[C@@H](C(=O)CO)CC[C@@H]12 [aldosterone]
Luciferase response to dex mimicked by other adrenocorticosteroids [2]: mimicked
